Measured values as given in patent publication US5266566A, “Method of treating fungal infections using sterodial ester compounds” (British Technology Group Limited, priority 1989, dated 1993).
≈ marks a conversion by molar mass, not a printed value. Entries after “also recorded” stand apart in the source; their conditions may differ. Like-named read-outs stand apart in the source and are kept apart here.

What was measured:
Test in all cases: Disc diffusion antifungal test (zones of inhibition, approximate MIC)
Assay type in all cases: cell-based
[1] = tested on: Trichophyton mentagrophytes NCPF 224
Experimental: (§1) Candida albicans NCYC 597; Trichophyton mentagrophytes NCPF 224 and Microsporum audonii NCPF 638 were used throughout as test organisms. These are open deposits at the National Collection of Yeast Cultures, Norwich UK and the National Collection of Pathogenic Fungi of the Commonwealth Mycological Institute, Kew UK.
(§2) All organisms were maintained in a nutrient broth containing (gl^-1): Lab Lemco (Oxoid), 5; Peptone (Oxoid), 5; NaCl, 10. Cultures for testing antimicrobial activity were grown in this medium for 18 h prior to use. Solidified media were prepared by the addition of Agar (Oxoid No. 3) 1.5% w/v.
(§3) Antifungal activity was estimated using solutions of the compound (as the free acid) in dimethyl sulphoxide. A range of concentrations was used for each compound to permit calculation of an approximate MIC. 13 mm discs (Whatman) were soaked in a solution of the appropriate dilution, either allowed to dry, or placed directly onto the surface of nutrient agar plates seeded with the required test organism.
(§4) After 24 h incubation the diameters of zones of inhibition were measured. After a further 24 h incubation, the plates were re-examined and zones re-measured. The compounds were tested in three groups.

[2] = tested on: Microsporum audonii NCPF 638; details: for MIC: Microsporum
Experimental: as §1, §2, §3, §4

[3] = tested on: Candida albicans NCYC 597; details: for MIC: Candida albicans; for Activity against Candida albicans (in words): result in words
Experimental: as §1, §2, §3, §4

[4] = NCPF224, read-out: MIC Trichophyton mentagrophytes, Table 2, Group 2 tests
[5] = NCPF638, read-out: MIC Microsporum audonii, Table 2, Group 2 tests
[6] = NCPF224, Table 1, Group 1 tests, read-out: MIC T. ment.
[7] = NCPF638, Table 1, Group 1 tests, read-out: MIC M. aud.
[8] = NCYC597, read-out: MIC C. albicans, Table 1, Group 1 tests
[9] = NCPF224, Table 3, Group 3 tests, read-out: MIC T. ment.
[10] = NCPF638, Table 3, Group 3 tests, read-out: MIC M. aud.
[11] = NCPF224, Table 2, Group 2 tests, read-out: MIC Trichophyton mentagrophytes
[12] = NCPF638, Table 2, Group 2 tests, read-out: MIC Microsporum audonii
[13] = NCYC597, Table 1, Group 1 tests, read-out: MIC C. albicans
[14] = NCYC597, read-out: MIC C. albicans, Table 3, Group 3 tests
[15] = NCYC597, read-out: MIC Candida albicans, Table 2, Group 2 tests
[16] = NCPF224, read-out: MIC T. ment., Table 1, Group 1 tests
[17] = NCPF638, read-out: MIC M. aud., Table 1, Group 1 tests

COC(=O)CC[C@@H](C)[C@H]1CC[C@H]2[C@@H]3CC[C@@H]4C[C@H](O)CC[C@]4(C)[C@H]3CC[C@]12C [Methyl lithocholate, methyl lithocholate]
MIC [1, 4]: 1000 µg/mL (≈ 2560 µM) | MIC [2, 5]: 950 µg/mL (≈ 2430 µM)

C[C@H](CCC(=O)O)[C@H]1CC[C@H]2[C@@H]3[C@H](O)C[C@@H]4C[C@H](O)CC[C@]4(C)[C@H]3CC[C@]12C [Chenodeoxycholic acid, reference compound]
MIC [1, 6]: 1300 µg/mL (≈ 3310 µM) | MIC [2, 7]: 1000 µg/mL (≈ 2550 µM) | MIC [3, 8]: 140 µg/mL (≈ 357 µM)

CCCCOC(=O)CC[C@@H](C)[C@H]1CC[C@H]2[C@@H]3[C@H](O)C[C@@H]4C[C@H](O)CC[C@]4(C)[C@H]3CC[C@]12C [Butyl chenodeoxycholate, n-butyl chenodeoxycholate]
MIC [1, 9]: 1500 µg/mL (≈ 3340 µM) | MIC [2, 10]: 1000 µg/mL (≈ 2230 µM) | MIC C. albicans ([3]; Table 3, Group 3 tests): no effect

COC(=O)CC[C@@H](C)[C@H]1CC[C@H]2[C@@H]3CC[C@@H]4C[C@H](O)CC[C@]4(C)[C@H]3C[C@H](O)[C@]12C [Methyl deoxycholate, methyl deoxycholate]
MIC [1, 6]: 900 µg/mL (≈ 2210 µM) | MIC [1, 11]: 250 µg/mL (≈ 615 µM) | MIC [1, 9]: 500 µg/mL (≈ 1230 µM) | MIC [2, 7]: 520 µg/mL (≈ 1280 µM) | MIC [2, 12]: 200 µg/mL (≈ 492 µM) | MIC [2, 10]: 450 µg/mL (≈ 1110 µM) | MIC [3, 13]: 20 µg/mL (≈ 49.2 µM) | MIC ([3]; NCYC597, Table 2, Group 2 tests, read-out: MIC Candida albicans): 31 µg/mL (≈ 76.2 µM) | MIC ([3]; NCYC597, Table 3, Group 3 tests, read-out: MIC C. albicans): 28 µg/mL (≈ 68.9 µM) | Homogeneity of effect in the zone of inhibition ([3]; Group 2 tests, many resistant colonies in the zone): not homogeneous | Activity against Candida albicans (in words) [3]: highly effective; also recorded: outstanding

COC(=O)CC[C@@H](C)[C@H]1CC[C@H]2[C@@H]3[C@H](O)C[C@@H]4C[C@H](O)CC[C@]4(C)[C@H]3C[C@H](O)[C@]12C [Methyl cholate, methyl cholate]
MIC [1, 6]: 80 µg/mL (≈ 189 µM) | MIC [2, 7]: 50 µg/mL (≈ 118 µM) | MIC [3, 13]: 3500 µg/mL (≈ 8280 µM)

CCCCOC(=O)CC[C@@H](C)[C@H]1CC[C@H]2[C@@H]3CC[C@@H]4C[C@H](O)CC[C@]4(C)[C@H]3C[C@H](O)[C@]12C [Butyl deoxycholate, n-butyl deoxycholate]
MIC [1, 11]: 850 µg/mL (≈ 1890 µM) | MIC [2, 12]: 875 µg/mL (≈ 1950 µM)

C[C@H](CCC(=O)O)[C@H]1CC[C@H]2[C@@H]3CC[C@@H]4C[C@H](O)CC[C@]4(C)[C@H]3C[C@H](O)[C@]12C [Deoxycholic acid, reference compound]
MIC [1, 6]: 300 µg/mL (≈ 764 µM) | MIC [1, 11]: 310 µg/mL (≈ 790 µM) | MIC [1, 9]: 250 µg/mL (≈ 637 µM) | MIC [2, 7]: 30 µg/mL (≈ 76.4 µM) | MIC [2, 12]: 35 µg/mL (≈ 89.2 µM) | MIC [2, 10]: 40 µg/mL (≈ 102 µM) | Activity against Microsporum audonii (in words) ([2]; result in words): very highly effective; also recorded: effective | MIC [3, 8]: 2100 µg/mL (≈ 5350 µM) | MIC [3, 14]: 1800 µg/mL (≈ 4590 µM) | MIC [3, 15]: 2000 µg/mL (≈ 5090 µM) | Activity against Candida albicans (in words) [3]: poorer action against Candida

C[C@H](CCC(=O)O)[C@H]1CC[C@H]2[C@@H]3[C@H](O)C[C@@H]4C[C@H](O)CC[C@]4(C)[C@H]3C[C@H](O)[C@]12C [Cholic acid, reference compound]
MIC [1, 16]: 10000 µg/mL (≈ 24500 µM) | MIC [1, 4]: ~10000 µg/mL (≈ 24500 µM) | MIC [2, 17]: 5500 µg/mL (≈ 13500 µM) | MIC [2, 5]: ~5000 µg/mL (≈ 12200 µM) | MIC [3, 8]: 390 µg/mL (≈ 955 µM) | MIC [3, 15]: 405 µg/mL (≈ 991 µM)

C[C@H](CCC(=O)O)[C@H]1CC[C@H]2[C@@H]3CC[C@@H]4C[C@H](O)CC[C@]4(C)[C@H]3CC[C@]12C [Lithocholic acid, reference compound]
MIC [2, 7]: 100 µg/mL (≈ 266 µM) | MIC [3, 13]: 410 µg/mL (≈ 1090 µM)

COC(=O)CC[C@@H](C)[C@H]1CC[C@H]2[C@@H]3[C@H](O)C[C@@H]4C[C@H](O)CC[C@]4(C)[C@H]3CC[C@]12C [Methyl chenodeoxycholate, methyl chenodeoxycholate]
MIC [1, 16]: 460 µg/mL (≈ 1130 µM) | MIC ([1]; NCPF224, read-out: MIC T. ment., Table 3, Group 3 tests): 1000 µg/mL (≈ 2460 µM) | MIC [2, 17]: 30 µg/mL (≈ 73.8 µM) | MIC ([2]; NCPF638, read-out: MIC M. aud., Table 3, Group 3 tests): 800 µg/mL (≈ 1970 µM) | MIC [3, 8]: 20 µg/mL (≈ 49.2 µM) | MIC [3, 14]: 1000 µg/mL (≈ 2460 µM)

CCCCOC(=O)CC[C@@H](C)[C@H]1CC[C@H]2[C@@H]3CC[C@@H]4C[C@H](O)CC[C@]4(C)[C@H]3CC[C@]12C [Butyl lithocholate, n-butyl lithocholate]
MIC [1, 11]: 1100 µg/mL (≈ 2540 µM) | MIC [2, 12]: 900 µg/mL (≈ 2080 µM)
